Test results reported in PubChem BioAssay (NCI).
Several values for one entry are separate records, joined by “and”; a condition that tells them apart may be missing. Equal values may be shown once.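 Exposure lasted 48 hours, with cells grown in 96-well plates and compounds tested at five concentrations. GI50: concentration for 50% inhibition of growth. TGI denotes the concentration required for complete inhibition of growth.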

How the values were obtained:
Test in all cases: NCI anticancer screen, dose series, 48 h
[1] = test system: RPMI-8226 leukemia
[2] = test system: M14 melanoma
[3] = test system: 786-0 renal
[4] = test system: SK-MEL-5 melanoma
[5] = test system: CAKI-1 renal
[6] = test system: MOLT-4 leukemia
[7] = test system: OVCAR-5 ovarian
[8] = test system: EKVX NSCLC
[9] = test system: HT29 colon
[10] = test system: SF-295 CNS

Structure (SMILES)	TGI [1] [µM]	TGI [2] [µM]	TGI [3] [µM]	TGI [4] [µM]	TGI [5] [µM]	TGI [6] [µM]	TGI [7] [µM]	TGI [8] [µM]	TGI [9] [µM]	TGI [10] [µM]	GI50 [1] [µM]	GI50 [2] [µM]	GI50 [3] [µM]	GI50 [4]	GI50 [5] [µM]	GI50 [6]	GI50 [7] [µM]	GI50 [8] [µM]	GI50 [9] [µM]	GI50 [10] [µM]
CC(=O)Nc1ccc(C(=O)N2N=C(C)/C(=C/c3ccccc3O)C2=O)cc1	> 100	> 100	> 100	> 100	> 100	> 100	> 100	> 100	> 100	> 100										
CCCC1c2c(ccc3ccccc23)Oc2ccc3ccccc3c21	98.6	> 100	> 100	> 100	> 100	> 100	> 100	> 100	> 100	88.6										
Cc1ccc2c(c1)nc(C(=O)c1ccco1)c(C(F)(F)F)[n+]2[O-]	> 100	> 100	> 100	2.94	> 100	> 100	> 100	> 100	> 100	> 100	64.6	> 100	> 100	1.6 µM	77	> 100 µM	> 100	57.5	> 100	64
c1ccc(Cc2nc3ccc(Nc4ncnc5ccccc45)cc3[nH]2)cc1	> 25	> 25	> 25	> 25	> 25	> 25	> 25	> 25	> 25	> 25	16.8	> 25	> 25	> 25 µM	8.34	> 25 µM	17.8	9.4	9.07	> 25
O=C(O)c1ccc2c(c1)Cc1cc([N+](=O)[O-])ccc1-2	77.4	> 100	> 100	> 100	> 100	> 100	> 100	> 100	> 100	> 100										
CC(=O)Nc1ccc(/C=C/[N+](=O)[O-])cc1	4.73	7.01	7.61	5.97	2.78	4.37	9.25	12.9	3.93	14										
N[C@@H](Cc1c[nH]c2ccccc12)C(=O)NC1CCN(C(=O)c2c[nH]c3ccccc23)CC1	> 100	> 100	> 100	> 100	> 100	> 100	> 100	> 100	> 100	> 100	> 100	> 100	78.1	> 100 µM	> 100	63.5 µM	> 100	> 100	> 100	> 100
Cc1c(C#N)cccc1-c1cc(-c2cn(Cc3cccc(C(C)(C)O)n3)nn2)nc(N)n1	34.9	> 100	> 100	35.1	> 100	> 100	> 100	> 100	> 100	> 100	7.57	21.7	32	15 µM	10.4	21.3 µM	> 100	27.8	28.2	25.2
CSc1nc(NC2OCC(OC(C)=O)C(OC(C)=O)C2OC(C)=O)c2c(OC(C)=O)c(C)c(=O)oc2n1 (centres undefined)	> 100	> 100	> 100	> 100	> 100	> 100	> 100	> 100	> 100	> 100										
Cc1c(N=Nc2ccc([N+](=O)[O-])cc2)nc2scc(-c3ccccc3)n12	> 100	> 100	> 100	> 100	> 100	> 100	> 100	> 100	> 100	> 100										
CCN1C2=NC(=O)N(C)C(=O)C2(Cl)C(C(SC)S(=O)(=O)c2ccc(C)cc2)c2ccccc21 (centres undefined)	41.6	52.5	52.9	> 100	> 100	13.3	> 100	> 100	> 100	> 100										
O=C(O)c1cc2ccccc2c(O)c1O	> 76.1	16.3	27.6	8.18	33.9	> 66.8	32.1	51.1	49.3	29.4										
COc1ccc(/C=N/N=C(\N)NO)cc1OC	> 100	96.9	> 100	58.3	92.3	> 100	> 100	> 100	> 100	> 100										
O=c1cc(C(F)(F)F)c2cc3c(cc2o1)NCCC3	> 100	> 100	> 100	> 100	> 100	> 100	> 100	> 100	> 100	> 100										
CC(O)/C=C/C(CCC(C)CO)C(C)C (centres undefined)	> 100	> 100	> 100	> 100	> 100	> 100	> 100	> 100	> 100	> 100										
O=C(/C=C/c1cccnc1)NCCCCC1CCN(C(=O)c2ccccc2)CC1	> 100	> 100	> 100	> 100	> 100	> 100	> 100	> 100	> 100	> 100		< 0.01	> 100	35.3 µM and 21.8 µM	> 100	31.1 µM and 21.7 µM	27.7	> 66.9	< 0.01	< 0.0256
CCCC[C@H]1C(=O)O[C@H](C)[C@H](NC(=O)c2cccc(NC=O)c2O)C(=O)O[C@@H](C)[C@@H]1OC(=O)CC(C)C	24.4	47.7	35	16.8	40.9	53	39	37.9	27.4	21										
O=C1C(Cl)=C(Cl)C(=O)N1C1C2CC3CC(C2)CC1C3 (centres undefined)	> 80.5	> 100	> 100	> 100	> 66.9	> 83.3	> 100	> 100	> 100	> 100										
Cc1ccc(C(=O)Nc2ccc(CN3CCN(C)CC3)c(C(F)(F)F)c2)cc1C#Cc1cnc(N)cc1C#N	2.7	0.511	0.826	1.43	0.538	1.08	1.42	1.44	0.729	1.16	0.496	0.021	0.162	0.741 µM	0.0828	0.137 µM	0.309	0.366	0.051	0.315
O=C1CCC(Cc2ccc(Cl)cc2Cl)C(=O)N1 (centres undefined)	> 100	> 100	> 100	> 100	> 100	> 100	> 100	> 100	> 100	> 100										
O=C(O)C(=Cc1ccnc2ccccc12)C(=O)O	> 100	> 100	> 100	> 100	> 100	> 100	> 100	> 100	> 100	> 100										
Cc1cccc(C(C)(C)C)c1NC(=O)C(=O)C(C(=O)/C=C\c1ccccc1)C1OC(=O)c2ccccc21 (centres undefined)	> 100	> 100	> 100	> 100	> 100	> 100	> 100	> 100	> 100	> 100										
O=Cc1c(-c2cc(O)ccc2O)nc2sccn12	8.09	30.1	15.9	35.6	4.09	11.5	74.4	93.1	> 100	74.6	1.76	13.8	3.83	15.8 µM	0.958	2.52 µM	23.1	28.4	35.1	25
COC(=O)C(CCS(=O)(=O)CC(=O)C(=O)Nc1cccc(C(C)=O)c1)C(=O)OC	> 69.4	> 100	> 100	> 100	> 100	> 100	> 100	> 100	> 100	> 100										
C=C1[C@@H](C)[C@H]2[C@H](Cc3ccccc3)NC(=O)[C@]23OC(=O)/C=C/[C@H](O)CCC[C@@H](C)C/C=C/[C@H]3[C@@H]1O	39.6	> 100	> 100	63.1	4.51	72.3	> 100	> 100	> 100	53.5										
O=C(/C=C/c1ccc(OCC(=O)N2CCN(c3ccccc3)CC2)cc1)c1ccc(Cl)cc1	> 100	> 100	73.7	> 100	> 100	> 100	> 100	> 83.9	> 100	54.7										
